# Reference: US12268747B2, “Polypeptides having anti-senescent effects and uses thereof” (OneSkin, Inc., priority 2019, dated 2025)
# Peptide text beside a SMILES is read from it.
# Legend:
# [1] = system: Primary fibroblasts from Progeria patients; test: Polypeptide library screen: SA-B-galactosidase senescence and cell number in Progeria fibroblasts; assay type: cell-based, human; settings: 10 μM, 48 hours
# Procedure: Primary fibroblasts isolated from Progeria patients can constitute a genetic model of early aging and cellular senescence in humans. Primary fibroblasts from Progeria patients were cultured in DMEM (Dulbecco's Modified Eagle's Medium) supplemented with 10% v.v. fetal bovine serum (FBS), and 1% v.v. of penicillin/streptomycin solution (1,000 U·mL−1). Cells were kept in a 5% CO2, 37° C. and 95% humidity atmosphere. After expansion, these cells were seeded in 96-well plates (1,000 cells per well) and, 6 hours after plating, were incubated with individual polypeptides from a proprietary library at 50 μM for 48 hours. Negative control comprised untreated cells, which received vehicle only; positive control group comprised cells incubated with 10 μM ABT-263, a senolytic compound for the same period. […] Three independent experiments including three technical replicates were performed.
# [2] = system: Primary fibroblasts from Progeria patients; test: Senescence (SA-β-galactosidase, ATRX foci) in Progeria fibroblasts, short sequences; assay type: cell-based, human; settings: 500 nM, 5 μM, 50 μM
# Procedure: Skin cells from Progeria patients were used as a model of aging because of the high levels of cellular senescence. Primary fibroblasts from Progeria patients were cultured in DMEM (Dulbecco's Modified Eagle's Medium) supplemented with 10% v.v. fetal bovine serum (FBS), and 1% v.v. of penicillin/streptomycin solution (1,000 U·mL−1). Cells cultured at 5% CO2, 37° C. and 95% humidity atmosphere. After expansion, the cells were seeded in 96-well plates (4,000 cells per well) and, 6 hours after plating, were incubated with 500 nM, 5 μM or 50 μM of polypeptide sequence LKGIL (SEQ ID NO: 6) or WLKGI (SEQ ID NO: 7). Negative control comprised untreated cells, which received vehicle only. After incubation, relative cellular senescence, which was assessed by the activity of senescence associated β-galactosidase staining relative to untreated control and by the quantification of ATRX foci/nuclei, was analyzed. Three independent experiments (biological replicates) including three technical replicates were performed. Data was analyzed using ANOVA and a Bonferroni post-hoc test. Statistical significance was determined as p values equal or lower than 0.05, where *p<0.05 and ** p<0.01.
# [3] = system: MeWo cells; test: Melanin content of MeWo cells, 7 days treatment; assay type: cell-based, human; settings: 7 days after 14 day IBMX pre-treatment; Peptide 14 3.12 μM or retinoic acid 2 μM with 25 μM IBMX; positive control 25 μM IBMX
# Procedure: (§1) To test whether Peptide 14 promotes depigmentation of melanocytes, MeWo cells were cultured in DMEM supplemented with 10% v/v FBS and 1% v/v of penicillin/streptomycin solution (1,000 U·mL^−1) at 5% CO2, 37° C. and 95% humidity. For two weeks prior to treatment with one of the experimental conditions (pre-treatment), the MeWo cells were cultured with isobutyl methylxanthine (IBMX) to stimulate melanin synthesis. After the MeWo cells were seeded in 6-well plates at 1,000,000 cells per well for 6 hours, the cells were incubated with one of the experimental conditions for 7 days and analyzed for intracellular and supernatant melanin content.
# The experimental conditions included a positive control group, a negative control group, a Peptide 14 (IBMX) 7d group, and a retinoic acid (IBMX) 7d group. […]
# (§2) After treatment, the melanin content in the cell pellet and the cell culture supernatant was assessed by the absorbance of the samples at 492 nm. […] Data are presented as relative melanin content, absorbance of the samples at a specified wavelength (492 nm) normalized to the absorbance of the negative control samples also as the same wavelength. […] The data were analyzed using ANOVA and Bonferroni post-hoc test when a statistical significance was detected. […]
# [4] = system: MeWo cells; test: Melanin content of MeWo cells, 14 days or interrupted on 7th day; assay type: cell-based, human
# Procedure: as §1, with “The skin frequently may experience rebound hyperpigmentation, where pigmentation is reestablished in the skin after the discontinuation of the lightening treatment(s). To” for “To”, “whether the depigmentation effect of” for “whether”, “14 remained after the Peptide 14 treatment was discontinued,” for “14 promotes depigmentation of melanocytes,”, “for 14” for “for 7”
# The experimental conditions included a positive control group, a negative control group, a Peptide 14 (IBMX) 14 days group, a retinoic acid (IBMX) 14 days group, a Peptide 14 (IBMX) interrupted on 7th day group, and a retinoic acid (IBMX) interrupted on 7th day group. The negative control group comprised MeWo cells which were stimulated with 25 μM IBMX for 2 weeks in the pre-treatment period and then were untreated for 14 days, receiving the vehicle only, after being plated for the experiment. The positive control group comprised MeWo cells that were incubated with 25 μM IBMX during the entire experiment, for 2 weeks in the pre-treatment period and for 14 days in the treatment period. Some of the groups were treated with both IBMX 25 μM for 7 or 14 days, as well as 3.12 μM Peptide 14, or both IBMX 25 μM (for 7 or 14 days), as well as retinoic acid 2 μM. The Peptide 14 (IBMX) 14 day group comprised MeWo cells that were incubated with 25 μM IBMX 2 weeks in the pre-treatment period and then treated for 14 days with 25 μM IBMX and 3.12 μM Peptide 14. The retinoic acid (IBMX) 14 day group comprised MeWo cells that were incubated with 25 μM IBMX 2 weeks in the pre-treatment period and then treated for 14 days with 25 μM IBMX and 2 μM retinoic acid. […]
# as §2, with “to the […] absorbance of” for “to the absorbance of”
# [5] = system: Primary fibroblasts isolated from 3 healthy chronologically aged patients; test: SA-B-galactosidase senescence in fibroblasts of aged donors, concentration series; assay type: cell-based, human; settings: 1.56-50 μM (Peptide 16: 1.56-25 μM), 48 hours; in at least one of the tested concentrations
# Procedure: Primary fibroblasts isolated from 3 healthy chronologically aged patients were used. Cells were cultured in DMEM (Dulbecco's Modified Eagle's Medium) supplemented with 10% v.v. fetal bovine serum (FBS), and 1% v.v. of penicillin/streptomycin solution (1,000 U·mL−1). Cells were kept in a 5% CO2, 37° C. and 95% humidity atmosphere. After expansion, these cells were seeded in 96-well plates (4,000 cells per well) and, 6 hours after plating the cells were treated with one of 4 senotherapeutic polypeptides (Peptide 14, Peptide 13, Peptide 15, and Peptide 16) and incubated for 48 hours. Each polypeptide was tested at 6 different concentrations: 50 μM, 25 μM, 12.5 μM, 6.25 μM, 3.12 μM, and 1.56 μM, except for Peptide 16, which was tested at 5 different concentrations: 25 μM, 12.5 μM, 6.25 μM, 3.12 μM, and 1.56 μM. A negative control comprised untreated cells, which received vehicle only. After incubation, relative cellular senescence (assessed by the activity of senescence associated B-galactosidase staining relative to untreated control) was analyzed (FIG. 2, panels A-D), in which the Y axis indicates the relative senescence levels normalized to untreated control. Each column corresponds to a different concentration of a polypeptide. Three independent experiments (biological replicates) including three technical replicates were performed. Data was analyzed using Analysis of Variance (ANOVA) and a Bonferroni post-hoc tests. Statistical significance was determined as p values equal or lower than 0.05.
# [6] = system: human primary fibroblasts isolated from 3 healthy donors, etoposide-stressed; test: Etoposide-induced senescence in fibroblasts; assay type: cell-based; settings: etoposide 20 μM, 24 hours
# Procedure: Cellular senescence may be caused by several different stimuli. In order to assess whether Peptide 14 was effective against UVB-induced and chemically-induced senescence, human primary fibroblasts isolated from 3 healthy donors were used. These cells were cultured in DMEM (Dulbecco's Modified Eagle's Medium) supplemented with 10% v.v. fetal bovine serum (FBS), and 1% v.v. of penicillin/streptomycin solution (1,000 U·mL−1). Cells were kept in a 5% CO2, 37° C. and 95% humidity atmosphere. After expansion, these cells were seeded in 96-well plates (4,000 cells per well) and, 6 hours after plating, were submitted to either etoposide (20 μM) treatment for 24 hours, or exposed twice to 0.05 J/cm^2 of UVB radiation. […] After incubation, relative cellular senescence (assessed by the activity of senescence associated β-galactosidase staining relative to untreated control) was analyzed and plotted in column graphs. ATRX foci were also assessed following ATRX immunofluorescence staining. Graphs were built using the average ATRX foci detected per nuclei. […] Data was analyzed using with either t-test or ANOVA followed by a Bonferroni post-hoc test. Statistical significance was determined as p-values equal or lower than 0.05 (FIG. 6).
# [7] = 7 day treatment, then 7 days 25 μM IBMX only
compound,measurement,setting,value
CC1(C)CCC(c2ccc(Cl)cc2)=C(CN2CCN(c3ccc(C(=O)NS(=O)(=O)c4ccc(N[C@H](CCN5CCOCC5)CSc5ccccc5)c(S(=O)(=O)C(F)(F)F)c4)cc3)CC2)C1 [ABT-263],cellular toxicity (cell number),[1],cellular toxicity
same,cellular senescence (SA-B-galactosidase staining),[1]; positive control,significant reduction
CC[C@H](C)[C@H](NC(=O)CNC(=O)[C@H](CCCCN)NC(=O)[C@H](CC(C)C)NC(=O)[C@@H](N)Cc1c[nH]c2ccccc12)C(=O)O [WLKGI] (H-WLKGI-OH; N-terminus and C-terminus assumed),cellular toxicity (relative cell number),[2],No cellular toxicity
CC1=C(/C=C/C(C)=C/C=C/C(C)=C/C(=O)O)C(C)(C)CCC1 [retinoic acid],"relative melanin content, cell pellet",[3],about 125 % of the negative control group
same,"relative melanin content, cell culture supernatant",[4]; [7],about 100%
same,"relative melanin content, cell pellet",[4]; [7],about 90%
same,"relative melanin content, cell pellet","[4]; 14 day treatment, Peptide 14 3.12 μM or retinoic acid 2 μM with 25 μM IBMX, positive control 25 μM IBMX, normalized to cell number and negative control",about 130%
same,"relative melanin content, cell culture supernatant","[4]; 14 day treatment, positive control 25 μM IBMX",about 50%
WLKGILREAA [Peptide 16],relative cellular senescence (SA-B-galactosidase staining) vs untreated control,[5],senotherapeutic effects
CC[C@H](C)[C@H](NC(=O)CNC(=O)[C@H](CCCCN)NC(=O)[C@@H](N)CC(C)C)C(=O)N[C@@H](CC(C)C)C(=O)O [LKGIL] (H-LKGIL-OH; N-terminus and C-terminus assumed),cellular toxicity (relative cell number),[2],No cellular toxicity
KLKGILRGAA [Peptide 15],relative cellular senescence (SA-B-galactosidase staining) vs untreated control,[5],senotherapeutic effects
"COc1cc([C@@H]2c3cc4c(cc3[C@@H](O[C@@H]3O[C@@H]5CO[C@@H](C)O[C@H]5[C@H](O)[C@H]3O)[C@H]3COC(=O)[C@H]23)OCO4)cc(OC)c1O [Etoposide, etoposide]",ATRX foci nuclear accumulation (average ATRX foci/cell),[6],significant increase
same,cellular senescence level,[6],significant increase
